Measurements published in ChEMBL document CHEMBL5291721, “A preclinical secondary pharmacology resource illuminates target-adverse drug reaction associations of marketed drugs” (Nat Commun, 2023).

Legend:
[1] = molecular target: T1, Adenosine receptor A1 (Homo sapiens, UniProt P30542)
T1 sequence (P30542 whole entry): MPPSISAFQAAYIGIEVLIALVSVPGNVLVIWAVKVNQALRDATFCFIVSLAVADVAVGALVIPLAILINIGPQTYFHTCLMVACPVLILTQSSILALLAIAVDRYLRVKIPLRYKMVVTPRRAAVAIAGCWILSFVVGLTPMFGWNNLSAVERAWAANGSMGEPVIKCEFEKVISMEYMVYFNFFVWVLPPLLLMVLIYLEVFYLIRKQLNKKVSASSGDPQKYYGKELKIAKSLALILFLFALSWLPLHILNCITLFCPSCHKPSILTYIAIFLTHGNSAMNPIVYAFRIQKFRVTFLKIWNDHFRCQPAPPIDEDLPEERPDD

[2] = molecular target: T2, Thromboxane A2 receptor (Homo sapiens, UniProt P21731); type: functional
T2 sequence (P21731 whole entry): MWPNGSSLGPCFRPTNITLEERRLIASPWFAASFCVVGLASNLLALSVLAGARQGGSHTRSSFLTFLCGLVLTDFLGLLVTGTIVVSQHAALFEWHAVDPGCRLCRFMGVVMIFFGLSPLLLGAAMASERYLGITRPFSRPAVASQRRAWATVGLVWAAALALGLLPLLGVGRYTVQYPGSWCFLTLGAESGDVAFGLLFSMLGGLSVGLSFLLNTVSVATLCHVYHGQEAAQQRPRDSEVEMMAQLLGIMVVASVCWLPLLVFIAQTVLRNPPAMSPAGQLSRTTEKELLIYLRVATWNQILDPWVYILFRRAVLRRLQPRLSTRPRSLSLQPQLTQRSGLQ

[3] = molecular target: T3, Estrogen receptor (Homo sapiens, UniProt P03372); type: functional
T3 sequence (P03372 whole entry): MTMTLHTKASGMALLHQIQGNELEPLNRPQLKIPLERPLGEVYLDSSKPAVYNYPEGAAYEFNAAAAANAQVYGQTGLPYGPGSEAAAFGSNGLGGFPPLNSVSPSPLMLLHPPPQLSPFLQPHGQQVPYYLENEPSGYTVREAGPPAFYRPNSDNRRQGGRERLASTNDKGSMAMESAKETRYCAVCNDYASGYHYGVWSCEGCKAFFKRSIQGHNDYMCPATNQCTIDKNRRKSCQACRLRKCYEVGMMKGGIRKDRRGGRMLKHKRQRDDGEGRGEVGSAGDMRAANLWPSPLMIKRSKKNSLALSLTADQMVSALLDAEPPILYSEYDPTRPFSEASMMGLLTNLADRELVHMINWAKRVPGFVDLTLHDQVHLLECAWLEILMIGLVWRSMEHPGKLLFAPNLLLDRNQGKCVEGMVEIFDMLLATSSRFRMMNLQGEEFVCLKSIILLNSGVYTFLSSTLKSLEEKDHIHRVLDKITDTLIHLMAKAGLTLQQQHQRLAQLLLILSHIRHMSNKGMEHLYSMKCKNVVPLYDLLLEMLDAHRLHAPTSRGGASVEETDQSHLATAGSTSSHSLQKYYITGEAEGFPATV

[4] = molecular target: Acetylcholinesterase (Homo sapiens, UniProt P22303); type: functional
Sequence of Acetylcholinesterase (P22303 whole entry): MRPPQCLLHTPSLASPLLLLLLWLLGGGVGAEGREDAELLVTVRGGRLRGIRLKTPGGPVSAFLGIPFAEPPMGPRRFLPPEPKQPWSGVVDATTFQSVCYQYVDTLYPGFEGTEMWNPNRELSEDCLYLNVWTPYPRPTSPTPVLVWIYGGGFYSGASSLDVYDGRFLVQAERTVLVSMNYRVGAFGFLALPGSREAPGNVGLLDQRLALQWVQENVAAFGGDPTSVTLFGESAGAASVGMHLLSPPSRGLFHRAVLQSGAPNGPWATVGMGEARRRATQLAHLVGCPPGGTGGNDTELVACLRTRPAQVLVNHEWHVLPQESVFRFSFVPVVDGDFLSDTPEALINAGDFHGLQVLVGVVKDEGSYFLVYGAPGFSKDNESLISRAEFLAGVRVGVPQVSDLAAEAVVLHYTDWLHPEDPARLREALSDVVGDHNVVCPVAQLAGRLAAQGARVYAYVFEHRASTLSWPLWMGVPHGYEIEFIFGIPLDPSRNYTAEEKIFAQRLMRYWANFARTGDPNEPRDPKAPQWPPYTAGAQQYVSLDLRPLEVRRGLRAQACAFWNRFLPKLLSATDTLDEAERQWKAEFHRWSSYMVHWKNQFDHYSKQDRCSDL

[5] = molecular target: Epidermal growth factor receptor (Homo sapiens, UniProt P00533); type: functional
Sequence of Epidermal growth factor receptor (P00533 whole entry): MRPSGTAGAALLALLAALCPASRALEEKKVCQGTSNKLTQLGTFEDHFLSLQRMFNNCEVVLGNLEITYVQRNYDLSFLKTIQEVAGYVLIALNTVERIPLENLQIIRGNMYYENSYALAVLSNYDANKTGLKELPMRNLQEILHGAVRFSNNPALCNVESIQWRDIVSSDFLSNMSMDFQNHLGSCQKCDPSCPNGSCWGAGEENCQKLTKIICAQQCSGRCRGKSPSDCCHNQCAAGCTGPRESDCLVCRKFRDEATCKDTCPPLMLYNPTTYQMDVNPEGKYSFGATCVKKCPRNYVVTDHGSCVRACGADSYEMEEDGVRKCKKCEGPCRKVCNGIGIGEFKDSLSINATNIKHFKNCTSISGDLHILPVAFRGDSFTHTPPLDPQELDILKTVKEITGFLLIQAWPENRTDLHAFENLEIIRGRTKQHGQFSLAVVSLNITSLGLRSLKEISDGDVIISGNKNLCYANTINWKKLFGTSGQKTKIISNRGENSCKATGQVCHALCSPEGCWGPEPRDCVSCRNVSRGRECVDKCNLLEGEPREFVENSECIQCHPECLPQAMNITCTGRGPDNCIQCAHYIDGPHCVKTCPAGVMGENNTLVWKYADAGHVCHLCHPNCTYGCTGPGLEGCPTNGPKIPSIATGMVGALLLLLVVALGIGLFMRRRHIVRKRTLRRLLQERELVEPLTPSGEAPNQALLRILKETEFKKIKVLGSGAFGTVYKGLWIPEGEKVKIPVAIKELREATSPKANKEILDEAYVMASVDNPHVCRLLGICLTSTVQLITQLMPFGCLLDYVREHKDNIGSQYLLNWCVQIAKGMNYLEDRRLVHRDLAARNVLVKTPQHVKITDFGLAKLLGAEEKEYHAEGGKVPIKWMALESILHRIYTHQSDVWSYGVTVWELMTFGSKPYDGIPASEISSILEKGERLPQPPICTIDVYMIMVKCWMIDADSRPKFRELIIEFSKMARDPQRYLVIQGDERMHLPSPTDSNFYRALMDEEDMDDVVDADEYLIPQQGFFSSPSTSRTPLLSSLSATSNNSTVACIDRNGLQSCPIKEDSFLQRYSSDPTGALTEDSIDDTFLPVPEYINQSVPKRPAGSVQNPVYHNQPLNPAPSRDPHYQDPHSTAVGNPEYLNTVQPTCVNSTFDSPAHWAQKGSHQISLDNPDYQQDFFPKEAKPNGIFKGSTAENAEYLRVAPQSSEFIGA

[6] = molecular target: Substance-P receptor (Homo sapiens, UniProt P25103)
Sequence of Substance-P receptor (P25103 whole entry): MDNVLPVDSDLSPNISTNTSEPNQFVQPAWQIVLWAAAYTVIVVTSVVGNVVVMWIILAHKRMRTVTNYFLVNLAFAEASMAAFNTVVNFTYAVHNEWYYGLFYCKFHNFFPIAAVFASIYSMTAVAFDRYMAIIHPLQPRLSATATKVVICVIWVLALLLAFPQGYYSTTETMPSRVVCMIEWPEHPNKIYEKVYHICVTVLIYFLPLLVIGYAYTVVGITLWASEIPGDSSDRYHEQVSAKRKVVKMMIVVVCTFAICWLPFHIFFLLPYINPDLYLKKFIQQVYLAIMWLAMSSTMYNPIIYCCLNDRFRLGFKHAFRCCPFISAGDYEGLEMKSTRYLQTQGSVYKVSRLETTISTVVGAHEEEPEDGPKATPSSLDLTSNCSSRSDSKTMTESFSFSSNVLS

[7] = molecular target: T4, Alpha-1A adrenergic receptor (Homo sapiens, UniProt P35348)
T4 sequence (P35348 whole entry): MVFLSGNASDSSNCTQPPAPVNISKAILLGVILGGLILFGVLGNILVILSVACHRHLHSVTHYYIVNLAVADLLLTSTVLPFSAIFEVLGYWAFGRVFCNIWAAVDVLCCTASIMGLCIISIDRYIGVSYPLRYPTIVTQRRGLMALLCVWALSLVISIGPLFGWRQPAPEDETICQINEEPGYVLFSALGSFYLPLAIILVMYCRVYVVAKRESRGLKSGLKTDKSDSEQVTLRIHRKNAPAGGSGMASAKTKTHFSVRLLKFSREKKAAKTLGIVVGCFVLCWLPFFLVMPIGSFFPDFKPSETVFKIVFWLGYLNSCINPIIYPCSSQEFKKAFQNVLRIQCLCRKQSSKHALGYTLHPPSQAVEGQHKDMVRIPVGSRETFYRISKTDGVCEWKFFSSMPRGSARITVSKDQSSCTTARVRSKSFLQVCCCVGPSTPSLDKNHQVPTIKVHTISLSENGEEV

[8] = molecular target: Histamine H2 receptor (Homo sapiens, UniProt P25021)
Sequence of Histamine H2 receptor (P25021 whole entry): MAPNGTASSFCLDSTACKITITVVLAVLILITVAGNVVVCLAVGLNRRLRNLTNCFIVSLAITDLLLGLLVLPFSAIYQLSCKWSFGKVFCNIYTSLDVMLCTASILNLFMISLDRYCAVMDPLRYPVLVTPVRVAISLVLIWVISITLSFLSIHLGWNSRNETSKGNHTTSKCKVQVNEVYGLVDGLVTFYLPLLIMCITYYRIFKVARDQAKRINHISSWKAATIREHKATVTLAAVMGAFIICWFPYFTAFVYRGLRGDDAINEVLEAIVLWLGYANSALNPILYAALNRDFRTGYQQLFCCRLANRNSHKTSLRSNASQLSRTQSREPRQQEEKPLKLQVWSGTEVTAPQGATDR

[9] = molecular target: Cannabinoid receptor 1 (Homo sapiens, UniProt P21554); type: functional
Sequence of Cannabinoid receptor 1 (P21554 whole entry): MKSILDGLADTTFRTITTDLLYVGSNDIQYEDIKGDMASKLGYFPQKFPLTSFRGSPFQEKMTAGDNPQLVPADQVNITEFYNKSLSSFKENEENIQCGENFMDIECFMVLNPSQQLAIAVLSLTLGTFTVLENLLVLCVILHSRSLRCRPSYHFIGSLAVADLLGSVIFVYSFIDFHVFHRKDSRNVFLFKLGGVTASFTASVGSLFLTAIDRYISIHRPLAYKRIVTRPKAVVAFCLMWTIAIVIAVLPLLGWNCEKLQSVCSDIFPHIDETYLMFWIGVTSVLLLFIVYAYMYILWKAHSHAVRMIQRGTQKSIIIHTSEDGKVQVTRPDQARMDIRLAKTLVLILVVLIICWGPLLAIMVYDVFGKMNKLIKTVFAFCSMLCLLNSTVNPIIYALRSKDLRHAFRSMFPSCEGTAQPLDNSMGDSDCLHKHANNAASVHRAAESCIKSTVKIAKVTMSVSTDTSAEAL

[10] = molecular target: 5-hydroxytryptamine receptor 6 (Homo sapiens, UniProt P50406)
Sequence of 5-hydroxytryptamine receptor 6 (P50406 whole entry): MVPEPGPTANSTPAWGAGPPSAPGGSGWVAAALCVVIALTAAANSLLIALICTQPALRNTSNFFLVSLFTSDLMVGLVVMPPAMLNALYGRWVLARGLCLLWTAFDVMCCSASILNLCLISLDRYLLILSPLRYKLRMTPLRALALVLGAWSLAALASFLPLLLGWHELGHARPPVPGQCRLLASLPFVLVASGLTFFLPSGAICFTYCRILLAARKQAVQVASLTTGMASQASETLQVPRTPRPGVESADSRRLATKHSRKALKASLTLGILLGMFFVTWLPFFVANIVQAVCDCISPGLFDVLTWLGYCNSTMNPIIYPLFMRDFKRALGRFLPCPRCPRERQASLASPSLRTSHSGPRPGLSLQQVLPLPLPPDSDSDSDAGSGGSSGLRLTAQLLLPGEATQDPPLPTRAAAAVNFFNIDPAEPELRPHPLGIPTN

[11] = molecular target: T5, Androgen receptor (Rattus norvegicus, UniProt P15207); type: functional
T5 sequence (P15207 whole entry): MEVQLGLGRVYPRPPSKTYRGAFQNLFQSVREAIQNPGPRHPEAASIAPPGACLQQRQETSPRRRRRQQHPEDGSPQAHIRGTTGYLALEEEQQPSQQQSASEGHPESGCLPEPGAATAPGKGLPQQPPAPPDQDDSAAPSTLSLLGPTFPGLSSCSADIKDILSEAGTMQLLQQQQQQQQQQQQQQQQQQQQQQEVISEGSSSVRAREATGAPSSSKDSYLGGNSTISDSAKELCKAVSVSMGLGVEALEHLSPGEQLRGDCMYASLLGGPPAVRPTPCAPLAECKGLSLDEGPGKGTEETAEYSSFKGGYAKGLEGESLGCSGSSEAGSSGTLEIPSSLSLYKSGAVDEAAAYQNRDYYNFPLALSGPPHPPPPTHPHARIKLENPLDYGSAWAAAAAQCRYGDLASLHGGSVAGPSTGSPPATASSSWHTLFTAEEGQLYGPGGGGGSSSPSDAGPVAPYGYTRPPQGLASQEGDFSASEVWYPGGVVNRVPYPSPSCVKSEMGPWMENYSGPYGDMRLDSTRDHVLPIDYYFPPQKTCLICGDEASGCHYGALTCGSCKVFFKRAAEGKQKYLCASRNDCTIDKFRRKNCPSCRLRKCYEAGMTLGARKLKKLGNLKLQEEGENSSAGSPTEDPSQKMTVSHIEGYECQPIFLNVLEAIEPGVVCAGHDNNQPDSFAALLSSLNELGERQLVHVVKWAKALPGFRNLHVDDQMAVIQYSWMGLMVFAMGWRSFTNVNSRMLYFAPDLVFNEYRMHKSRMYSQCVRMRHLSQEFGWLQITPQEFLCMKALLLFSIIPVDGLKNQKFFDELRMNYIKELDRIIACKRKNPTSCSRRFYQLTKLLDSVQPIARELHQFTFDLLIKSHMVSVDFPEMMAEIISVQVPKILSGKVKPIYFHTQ
Also: assay procedure not described here.

## O=C(Nc1cccc2c(=O)cc(-c3nnn[nH]3)oc12)c1ccc(OCCCCc2ccccc2)cc1
[1]
  AC50: 21.7 µM

## CC(=N)N1CC[C@H](SC2=C(C(=O)O)N3C(=O)[C@H]([C@@H](C)O)[C@H]3C2)C1
[2]
  AC50: > 300 µM
[3]
  AC50: > 300 µM
[4]
  AC50: > 300 µM
[5]
  AC50: > 300 µM

## CC1(C)S[C@@H]2[C@H](NC(=O)[C@H](N)c3ccc(O)cc3)C(=O)N2[C@H]1C(=O)O [AMOXICILLIN]
[6]
  AC50: > 10 µM
[7]
  AC50: > 10 µM
[8]
  AC50: > 10 µM
[9]
  AC50: > 10 µM
[10]
  AC50: > 10 µM
[11]
  AC50: > 30 µM

## CNCC[C@@H](Oc1ccccc1C)c1ccccc1 [ATOMOXETINE]
[11]
  AC50: > 30 µM

## CCc1oc2ccccc2c1C(=O)c1cc(Br)c(O)c(Br)c1 [BENZBROMARONE]
[3]
  AC50: 7.6 µM

## C=C(C)[C@@H]1CCC(C)=C[C@H]1c1c(O)cc(CCCCC)cc1O [CANNABIDIOL]
[3]
  AC50: > 30 µM
[4]
  AC50: 17 µM
[5]
  AC50: > 30 µM

## Clc1cccc(Cl)c1N=C1NCCN1 [CLONIDINE]
[6]
  AC50: > 10 µM
[8]
  AC50: > 10 µM

## COC(=O)[C@H](c1ccccc1Cl)N1CCc2sccc2C1 [CLOPIDOGREL]
[3]
  AC50: > 30 µM
[6]
  AC50: > 10 µM
[7]
  AC50: > 10 µM
[8]
  AC50: > 10 µM
[9]
  AC50: > 10 µM
[10]
  AC50: > 10 µM

## CN1C[C@H](C(=O)N[C@]2(C)O[C@@]3(O)[C@@H]4CCCN4C(=O)[C@H](Cc4ccccc4)N3C2=O)C[C@@H]2c3cccc4[nH]cc(c34)C[C@H]21 [DIHYDROERGOTAMINE]
[8]
  AC50: 0.257 µM

## C#Cc1cccc(Nc2ncnc3cc(OCCOC)c(OCCOC)cc23)c1 [ERLOTINIB]
[2]
  AC50: > 30 µM
[3]
  AC50: > 30 µM
[4]
  AC50: > 30 µM

## CC1(C)O[C@@H]2C[C@H]3[C@@H]4C[C@H](F)C5=CC(=O)C=C[C@]5(C)[C@H]4[C@@H](O)C[C@]3(C)[C@]2(C(=O)CO)O1 [FLUNISOLIDE]
[3]
  AC50: > 30 µM

## CCC(=O)O[C@@H](O[P@](=O)(CCCCc1ccccc1)CC(=O)N1C[C@H](C2CCCCC2)C[C@H]1C(=O)O)C(C)C [FOSINOPRIL]
[1]
  AC50: > 30 µM

## C[C@H]1Oc2cc(cnc2N)-c2c(nn(C)c2C#N)CN(C)C(=O)c2ccc(F)cc21 [LORLATINIB]
[2]
  AC50: > 30 µM
[3]
  AC50: > 30 µM
[4]
  AC50: 1.8 µM
[5]
  AC50: 2.9 µM

## CC(C)(N)C(=O)N[C@H](Cc1c[nH]c2ccccc12)C(=O)N[C@H](Cc1c[nH]c2ccccc12)NC=O [MACIMORELIN]
[1]
  AC50: > 30 µM

## Cc1cnc(NC(=O)C2=C(O)c3ccccc3S(=O)(=O)N2C)s1 [MELOXICAM]
[6]
  AC50: > 10 µM
[7]
  AC50: > 10 µM
[8]
  AC50: > 10 µM
[9]
  AC50: > 10 µM
[10]
  AC50: > 10 µM

## CNCCC=C1c2ccccc2CCc2ccccc21 [NORTRIPTYLINE]
[10]
  AC50: 0.256 µM

## CN(C)c1cc(CNCC(C)(C)C)c(O)c2c1C[C@H]1C[C@H]3[C@H](N(C)C)C(O)=C(C(N)=O)C(=O)[C@@]3(O)C(O)=C1C2=O [OMADACYCLINE]
[1]
  AC50: > 30 µM
[11]
  AC50: > 30 µM

## COc1ccnc(C[S+]([O-])c2nc3ccc(OC(F)F)cc3[nH]2)c1OC (stereo not given) [PANTOPRAZOLE]
[6]
  AC50: > 10 µM
[7]
  AC50: > 10 µM
[8]
  AC50: > 10 µM

## COc1ccc(Cc2nccc3cc(OC)c(OC)cc23)cc1OC [PAPAVERINE]
[11]
  AC50: > 30 µM

## CNC[C@H](O)c1cccc(O)c1 [PHENYLEPHRINE]
[6]
  AC50: > 10 µM
[8]
  AC50: > 10 µM
[9]
  AC50: > 10 µM
[10]
  AC50: > 10 µM

## O=C1NC(=O)C(c2ccccc2)(c2ccccc2)N1 [PHENYTOIN]
[2]
  AC50: > 30 µM
[4]
  AC50: > 30 µM
[5]
  AC50: > 30 µM

## CC(C)C[C@H](CN)CC(=O)O [PREGABALIN]
[3]
  AC50: > 30 µM
[4]
  AC50: > 30 µM
[5]
  AC50: > 30 µM

## CNC(=O)c1cc(Oc2ccc(NC(=O)Nc3ccc(Cl)c(C(F)(F)F)c3)c(F)c2)ccn1 [REGORAFENIB]
[1]
  AC50: > 30 µM

## O=C(Nc1c(Cl)cncc1Cl)c1ccc(OC(F)F)c(OCC2CC2)c1 [ROFLUMILAST]
[11]
  AC50: > 30 µM

## CCCN(CCC)CCc1cccc2c1CC(=O)N2 [ROPINIROLE]
[2]
  AC50: > 30 µM
[4]
  AC50: > 30 µM
[8]
  AC50: > 10 µM
[5]
  AC50: > 30 µM

## CCCN(CCc1cccs1)[C@H]1CCc2c(O)cccc2C1 [ROTIGOTINE]
[2]
  AC50: > 30 µM
[3]
  AC50: > 30 µM
[4]
  AC50: 26 µM
[5]
  AC50: > 30 µM

## CC[C@H]1OC(=O)[C@H](C)[C@@H](O[C@H]2C[C@@](C)(OC)[C@@H](O)[C@H](C)O2)[C@H](C)[C@@H](O[C@@H]2O[C@H](C)C[C@H](N(C)C)[C@H]2O)[C@](C)(O)C[C@@H](C)/C(=N\OCOCCOC)[C@H](C)[C@@H](O)[C@]1(C)O [ROXITHROMYCIN]
[3]
  AC50: > 30 µM
[4]
  AC50: > 30 µM
[5]
  AC50: > 30 µM

## CC(C)N(CCCCOCC(=O)NS(C)(=O)=O)c1cnc(-c2ccccc2)c(-c2ccccc2)n1 [SELEXIPAG]
[11]
  AC50: 17 µM

## CC(=O)S[C@@H]1CC2=CC(=O)CC[C@]2(C)[C@H]2CC[C@@]3(C)[C@@H](CC[C@@]34CCC(=O)O4)[C@H]12 [SPIRONOLACTONE]
[3]
  AC50: > 30 µM
[6]
  AC50: > 10 µM
[7]
  AC50: > 10 µM
[4]
  AC50: > 30 µM
[8]
  AC50: > 10 µM
[5]
  AC50: > 30 µM

## CCCCNc1ccc(C(=O)OCCN(C)C)cc1 [TETRACAINE]
[6]
  AC50: > 10 µM
[7]
  AC50: > 10 µM
[8]
  AC50: 4.08 µM
[1]
  AC50: > 30 µM
[9]
  AC50: 0.0006 µM
[10]
  AC50: > 10 µM

## CN1CCN(CCCN2c3ccccc3Sc3ccc(S(=O)(=O)N(C)C)cc32)CC1 [THIOPROPERAZINE]
[1]
  AC50: > 30 µM

## CC1(C)O[C@@H]2[C@@H](CO[C@@]3(COS(N)(=O)=O)OC(C)(C)O[C@@H]23)O1 [TOPIRAMATE]
[6]
  AC50: > 10 µM
[7]
  AC50: > 10 µM
[8]
  AC50: > 10 µM
[1]
  AC50: > 30 µM
[9]
  AC50: > 10 µM
[10]
  AC50: > 10 µM
